Measurements: patent US10849881B2, “Octahydro-cyclobuta[1,2-c;3,4-c′]dipyrrol-2-yl” (Hoffmann-La Roche Inc., priority 2013, dated 2020)

molecular target: ATX (human His-tagged) (Homo sapiens (Human), UniProt Q13822); assay: Human ATX enzyme inhibition assay (fluorescence quenching, MR121 substrate); assay type: biochemical; details: 30 nM ATX, 1 μM MR121 substrate, 30° C., pH 8.0
In short: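 Fluorescence quenching assay with MR121/tryptophan-labelled substrate analogue in Tris-HCl buffer (140 mM NaCl, CaCl2, MgCl2, 0.01% Triton X-100, pH 8.0). Serially diluted compounds were preincubated 15 min at 30 °C with 30 nM ATX (final), then 1 µM substrate (final) added and incubated 15 min at 30 °C.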

| SMILES | IC50 |
| --- | --- |
| CCOc1cc(C(=O)N2C[C@@H]3[C@H](C2)[C@H]2CN(C(=O)c4ccc5[nH]nnc5c4)C[C@@H]32)cc2ccccc12 [Example 1.051, [(3aS,3bS,6aR,6bR)-5-(1H-benzotriazole-5-carbonyl)-octahydro-cyclobuta[1,2-c;3,4-c′]dipyrrol-2-yl]-(4-ethoxy-naphthalen-2-yl)-methanone] | 7 nM |
| CC(C)Oc1cc(C(=O)N2C[C@@H]3[C@H](C2)[C@H]2CN(C(=O)c4ccc5[nH]nnc5c4)C[C@@H]32)cc2ccccc12 [Example 1.052, [(3aS,3bS,6aR,6bR)-5-(1H-benzotriazole-5-carbonyl)-octahydro-cyclobuta[1,2-c;3,4-c′]dipyrrol-2-yl]-(4-isopropoxy-naphthalen-2-yl)-methanone] | 3.5 nM |
| O=C(c1ccc2[nH]nnc2c1)N1C[C@@H]2[C@H](C1)[C@H]1CN(C(=O)c3cc(OCc4ccccc4)c4cc[nH]c4c3)C[C@@H]21 [Example 1.053, [(3aS,3bS,6aR,6bR)-5-(1H-benzotriazole-5-carbonyl)-octahydro-cyclobuta[1,2-c;3,4-c′]dipyrrol-2-yl]-(4-benzyloxy-1H-indol-6-yl)-methanone] | 14 nM |
| O=C(c1ccc2c(c1)CCCC2)N1C[C@@H]2[C@H](C1)[C@H]1CN(C(=O)c3ccc4[nH]nnc4c3)C[C@@H]21 [Example 1.054, [(3aS,3bS,6aR,6bR)-5-(1H-benzotriazole-5-carbonyl)-octahydro-cyclobuta[1,2-c;3,4-c′]dipyrrol-2-yl]-(5,6,7,8-tetrahydro-naphthalen-2-yl)-methanone] | 59.2 nM |
| CC1(C)CC(C(=O)N2C[C@@H]3[C@H]4CN(C(=O)c5ccc6[nH]nnc6c5)C[C@H]4[C@@H]3C2)Cc2ccccc21 (stereo partly drawn) [Example 1.055, [(3aS,3bR,6aS,6bR)-5-(1H-benzotriazole-5-carbonyl)-octahydro-cyclobuta[1,2-c;3,4-c′]dipyrrol-2-yl]-(4,4-dimethyl-1,2,3,4-tetrahydro-naphthalen-2-yl)-methanone] | 22 nM |
| COCCCN1CC(C(=O)N2C[C@@H]3[C@H]4CN(C(=O)c5ccc6[nH]nnc6c5)C[C@H]4[C@@H]3C2)Cc2ccccc21 (stereo partly drawn) [Example 1.056, [(3aS,3bR,6aS,6bR)-5-(1H-benzotriazole-5-carbonyl)-octahydro-cyclobuta[1,2-c;3,4-c′]dipyrrol-2-ylH1-(3-methoxy-propyl)-1,2,3,4-tetrahydro-quinolin-3-yl]-methanone] | 29 nM |
| COCCOc1nc(C(=O)N2C[C@@H]3[C@H]4CN(C(=O)c5ccc6[nH]nnc6c5)C[C@H]4[C@@H]3C2)cc2ccccc12 [Example 1.057, [(3aR,3bS,6aR,6bS)-5-(1H-benzotriazole-5-carbonyl)-octahydro-cyclobuta[1,2-c;3,4-c′]dipyrrol-2-yl]-[1-(2-methoxy-ethoxy)-isoquinoline-3-yl]-methanone] | 7.7 nM |
| O=C(c1ccc2[nH]nnc2c1)N1C[C@@H]2[C@H](C1)[C@H]1CN(C(=O)c3cc4ccccc4c(OCC4CC4)n3)C[C@@H]21 [Example 1.058, [(3aR,3bS,6aR,6bS)-5-(1H-benzotriazole-5-carbonyl)-octahydro-cyclobuta[1,2-c;3,4-c′]dipyrrol-2-yl]-(1-cyclopropylmethoxy-isoquinolin-3-yl)-methanone] | 5.3 nM |
| CC(C)Oc1cc(C(=O)N2C[C@@H]3[C@H](C2)[C@H]2CN(C(=O)[C@@H]4CCc5[nH]nnc5C4)C[C@@H]32)cc2ccccc12 [Example 1.059, (4-isopropoxy-naphthalen-2-yl)-[(3aR,3bS,6aR,6bS)-5-((R)-4,5,6,7-tetrahydro-1H-benzotriazole-5-carbonyl)-octahydro-cyclobuta[1,2-c;3,4-c′]dipyrrol-2-yl]-methanone] | 1.3 nM |
| O=C(c1ccc2[nH]nnc2c1)N1C[C@@H]2[C@H](C1)[C@H]1CN(C(=O)c3cc4ccccc4c(OCC(F)(F)F)n3)C[C@@H]21 [Example 1.060, [(3aR,3bS,6aR,6bS)-5-(1H-benzotriazole-5-carbonyl)-octahydro-cyclobuta[1,2-c;3,4-c′]dipyrrol-2-yl]-[1-(2,2,2-trifluoro-ethoxy)-isoquinolin-3-yl]-methanone] | 4.7 nM |
| CC(C)Oc1cc(C(=O)N2C[C@@H]3[C@H]4CN(C(=O)c5ccc6[nH]nnc6c5)C[C@H]4[C@@H]3C2)cc2[nH]ccc12 [Example 1.061, [(3aS,3bS,6aR,6bR)-5-(1H-benzotriazole-5-carbonyl)-octahydro-cyclobuta[1,2-c;3,4-c′]dipyrrol-2-yl]-(4-isopropoxy-1H-indol-6-yl)-methanone] | 40.5 nM |
| CC(C)Oc1cc(C(=O)N2C[C@@H]3[C@H]4CN(C(=O)c5ccc(S(N)(=O)=O)cc5)C[C@H]4[C@@H]3C2)cc2ccccc12 [Example 1.062, 4-[(3aS,3bS,6aR,6bR)-5-(4-isopropoxy-naphthalene-2-carbonyl)-octahydro-cyclobuta[1,2-c;3,4-c′]dipyrrole-2-carbonyl]benzenesulfonamide] | 9 nM |
| O=C(c1ccc(-c2ccc(Cl)cc2)nc1)N1C[C@@H]2[C@H](C1)[C@H]1CN(C(=O)[C@@H]3CCc4[nH]nnc4C3)C[C@@H]21 [Example 1.063, [6-(4-chloro-phenyl)-pyridin-3-yl]-[(3aR,3bS,6aR,6bS)-5-((R)-4,5,6,7-tetrahydro-1H-benzotriazole-5-carbonyl)-octahydro-cyclobuta[1,2-c;3,4-c′]dipyrrol-2-yl]-methanone] | 1 nM |
| O=C(c1cc2ccccc2c(OCC2CC2)n1)N1C[C@@H]2[C@H](C1)[C@H]1CN(C(=O)[C@@H]3CCc4[nH]nnc4C3)C[C@@H]21 [Example 1.064, (1-cyclopropylmethoxy-isoquinolin-3-yl)-[(3aR,3bS,6aR,6bS)-5-((R)-4,5,6,7-tetrahydro-1H-benzotriazole-5-carbonyl)-octahydro-cyclobuta[1,2-c;3,4-c′]dipyrrol-2-yl]-methanone] | 1 nM |
| CC(C)Oc1cc(C(=O)N2C[C@@H]3[C@H]4CN(C(=O)c5ccc6[nH]nnc6c5)C[C@H]4[C@@H]3C2)cc2c1ccn2C [Example 1.065, [(3aS,3bS,6aR,6bR)-5-(1H-benzotriazole-5-carbonyl)-octahydro-cyclobuta[1,2-c;3,4-c′]dipyrrol-2-yl]-(4-isopropoxy-1-methyl-1H-indol-6-yl)-methanone] | 6.5 nM |
| CCOc1cc(C(=O)N2C[C@@H]3[C@H]4CN(C(=O)c5ccc6[nH]nnc6c5)C[C@H]4[C@@H]3C2)nc2ccccc12 [Example 1.066, [(3aR,3bS,6aR,6bS)-5-(1H-benzotriazole-5-carbonyl)-octahydro-cyclobuta[1,2-c;3,4-c′]dipyrrol-2-yl]-(4-ethoxy-quinolin-2-yl)-methanone] | 5 nM |
| CC(C)Oc1cc(C(=O)N2C[C@@H]3[C@H]4CN(C(=O)c5ccc6[nH]nnc6c5)C[C@H]4[C@@H]3C2)nc2ccccc12 [Example 1.067, [(3aR,3bS,6aR,6bS)-5-(1H-benzotriazole-5-carbonyl)-octahydro-cyclobuta[1,2-c;3,4-c′]dipyrrol-2-yl]-(4-isopropoxy-quinolin-2-yl)-methanone] | 5 nM |
| O=C(c1ccc2[nH]nnc2c1)N1C[C@@H]2[C@H](C1)[C@H]1CN(C(=O)c3ccc4c(c3)[nH]c3ccc(Cl)cc34)C[C@@H]21 [Example 1.068, [(3aS,3bS,6aR,6bR)-5-(1H-benzotriazole-5-carbonyl)-octahydro-cyclobuta[1,2-c;3,4-c′]dipyrrol-2-yl]-(6-chloro-9H-carbazol-2-yl)-methanone] | 14.3 nM |
| COCCOc1cc(C(=O)N2C[C@@H]3[C@H]4CN(C(=O)c5ccc6[nH]nnc6c5)C[C@H]4[C@@H]3C2)nc2ccccc12 [Example 1.069, [(3aR,3bS,6aR,6bS)-5-(1H-benzotriazole-5-carbonyl)-octahydro-cyclobuta[1,2-c;3,4-c′]dipyrrol-2-yl]-[4-(2-methoxy-ethoxy)-quinolin-2-yl]-methanone] | 8 nM |
| CC(C)Oc1cc(C(=O)N2C[C@@H]3[C@H]4CN(C(=O)c5ccc6[nH]nnc6c5)C[C@H]4[C@@H]3C2)nc2cc(C(F)(F)F)ccc12 [Example 1.070, [(3aR,3bS,6aR,6bS)-5-(1H-benzotriazole-5-carbonyl)-octahydro-cyclobuta[1,2-c;3,4-c′]dipyrrol-2-yl]-(4-isopropoxy-7-trifluoromethyl-quinolin-2-yl)-methanone] | 4 nM |
| O=C(c1ccc2[nH]nnc2c1)N1C[C@@H]2[C@H](C1)[C@H]1CN(C(=O)c3cc(OCC4CC4)c4ccccc4n3)C[C@@H]21 [Example 1.071, [(3aR,3bS,6aR,6bS)-5-(1H-benzotriazole-5-carbonyl)-octahydro-cyclobuta[1,2-c;3,4-c′]dipyrrol-2-yl]-(4-cyclopropylmethoxy-quinolin-2-yl)-methanone] | 3.5 nM |
| O=C(c1ccc2[nH]nnc2c1)N1C[C@@H]2[C@H](C1)[C@H]1CN(C(=O)c3ccc(-c4ccc(Cl)cc4)cn3)C[C@@H]21 [Example 1.072, [(3aR,3bS,6aR,6bS)-5-(1H-benzotriazole-5-carbonyl)-octahydro-cyclobuta[1,2-c;3,4-c′]dipyrrol-2-yl]-[5-(4-chloro-phenyl)-pyridin-2-yl]-methanone] | 6 nM |
| CCOc1nc(C(=O)N2C[C@@H]3[C@H]4CN(C(=O)c5ccc6[nH]nnc6c5)C[C@H]4[C@@H]3C2)cc2ccccc12 [Example 1.073, [(3aR,3bS,6aR,6bS)-5-(1H-benzotriazole-5-carbonyl)-octahydro-cyclobuta[1,2-c;3,4-c′]dipyrrol-2-yl]-(1-ethoxy-isoquinolin-3-yl)-methanone] | 3.5 nM |
